Values of other authors in patent publication US12090029B2, “Devices and methods for enhancing immunogenicity to intradermal vaccination” (VERSITECH LIMITED, priority 2016, dated 2024).

Experiments:
[1] = system: influenza vaccine; conditions: mouse model, imiquimod cream applied (Zhang et al., 2014)
[2] = system: influenza vaccination; conditions: elderly subjects
[3] = system: vaccine influenza strains; conditions: young healthy individuals, topical application before intradermal trivalent influenza vaccine (Hung et al., 2016)

For `CC(C)Cn1cnc2c(N)nc3ccccc3c21` [imiquimod], the “immunogenicity of influenza vaccine” value [1] is listed as “enhanced”, the “hospitalizations for influenza or pneumonia” value ([2]; relative to a vaccine-only group) is listed as “fewer” and the seroconversion rate ([2]; sustained to 1 year, relative to a vaccine-only group) is listed as “earlier and better”. The “immunogenicity of influenza vaccination” value ([2]; topical pre-treatment, relative to a vaccine-only group (Hung et al., 2014)) was “significantly expedited, augmented, and prolonged”, the “immunogenicity against the non-vaccine strains” value [3] was “increased” and the “immunogenicity against the vaccine influenza strains” value [3] was “significantly improved”.
